According to patent US20170283885A1, “ALGORITHMS FOR GENE SIGNATURE-BASED PREDICTOR OF SENSITIVITY TO MDM2 INHIBITORS” (DAIICHI SANKYO COMPANY, LIMITED, priority 2014, published 2017):

System: multi-cancer cell line panel
Assay: OncoPanel cytotoxicity assay, whole panel summary
Format: cell-based, human
Procedure: This Example describes an evaluation of the effect of a representative small molecule MDM2i on the growth of cells in a multi-cancer cell line panel. In this Example, the MDM2 inhibitors used were Compound A and Compound B p-toluenensulfonate. The panel included 250 human cancer cell lines (OncoPanel™, Ricerca Biosciences, Painesville, Ohio) that were evaluated in a high content drug screening analysis. The relative IC50 values for the cell lines were determined.
Cells were grown in RPMI 1640, 10% FBS, 2 mM L-alanyl-L-Glutamine, 1 mM Na Pyruvate, or a special medium in a humidified atmosphere of 5% CO2 at 37° C. Cells were seeded into 384-well plates and incubated in a humidified atmosphere of 5% CO2 at 37° C. Test compounds were added 24 hours post cell seeding. […]
Compounds were serially diluted 3.16-fold and assayed over 10 concentrations of inhibitor in a final assay concentration of 0.1% DMSO from the highest test concentration specified in the sample information chapter. Automated fluorescence microscopy was carried out using a GE Healthcare InCell Analyzer 1000, and images were collected with a 4×objective. Twelve bit tiff images were acquired using the InCell Analyzer 1000 3.2 and analyzed with Developer Toolbox 1.6 software.
Cell proliferation was measured by the signal intensity of the incorporated nuclear dye. […]

CC[C@@H]1CNC2(CC2)CN1C(=O)[C@@H]1C[C@@H](F)CN1C(=O)C1=C(C(C)C)N2C(=N[C@@](C)(c3ccc(Cl)nc3)[C@H]2c2ccc(Cl)c(F)c2)S1 [Compound A, [(5R,6S)-5-(4-Chloro-3-fluorophenyl)-6-(6-chloropyridin-3-yl)-6-methyl-3-(propan-2-yl)-5,6-dihydroimidazo[2,1-b][1,3]thiazol-2-yl][(2S,4R)-2-{[(6R)-6-ethyl-4,7-diazaspiro[2.5]oct-7-yl]carbonyl}-4-fluoropyrrolidin-1-yl]methanone]
share of the cell lines with IC50 values of <1 μM: Approximately 25%
share of the cell lines with IC50 values of >10: approximately 70%
